{
  "source": "patent US20080221074A1",
  "about": "“Drug Screen and Treatment Method” (priority 2006, published 2008)",
  "key": {"[1]": {"tested_on": "lethal amount of bacterial lipopolysaccharide (LPS)", "experiment": "lethal shock protocol", "assay_type": "in vivo, mice", "method": "Treatment of lethal inflammation/shock. Two compounds, 16α-bromoepiandrosterone (3β-hydroxy-16α-bromoandrostane-17-one) and 3β,16α-dihydroxy-17-oxoandrostane, were used in a lethal shock protocol. In one protocol, 3 mg of 16α-bromoepiandrosterone was administered to one group of animals by oral gavage, while another group received 3 mg of 16α-bromoepiandrosterone by subcutaneous injection. A group of control animals received a placebo control. In this protocol, the 16α-bromoepiandrosterone was administered to mice at 24 hours before and at 1 hour after administration of a lethal amount of bacterial lipopolysaccharide (LPS). By the end of the observation period, 72 hours after LPS administration, none of the vehicle treated placebo control animals had survived, while 65% of animals that received 16α-bromoepiandrosterone by oral administration survived. 50% of the animals that received 16α-bromoepiandrosterone by subcutaneous injection survived. Animals that survived for 72 hours all recovered from the LPS exposure.\nIn a second assay, 16α-bromoepiandrosterone or 3β,16α-dihydroxy-17-oxoandrostane was administered to mice by oral gavage at 24 hours before and 1 hour after administration of a lethal amount of LPS. A vehicle treated group of animals was used as the placebo control."}, "[2]": {"tested_on": "CD4^+CD25^+ T regulatory cells", "experiment": "generation of CD4+CD25+ T regulatory cells after adoptive transfer", "assay_type": "in vivo, B6 mice", "conditions": "1 mg/animal/day s.c. 14 days", "method": "Inhibition of the generation of CD4^+CD25^+ T regulatory cells or their activity in vivo. Purified CD4^+CD25^− T cells (5×10^6 cells) from congenic B6.SJL mice (CD45.1) per group were adoptively transferred into each of five B6 mice (CD45.2). The purified CD4^+CD25^− T cells were obtained by fluorescence activated cell sorting (FACS) of the donor cells at least twice. Vehicle (0.1% carboxymethylcellulose, 0.9% saline, 2% tween 80, 0.05% phenol) or 16α-bromoepiandrosterone in vehicle (1 mg/animal/day in 100 μL vehicle) was injected subcutaneously before transfer of the cells from the CD45.1 donor animals and the injections were continued daily for 14 days. Thymus, lymph nodes and spleens were collected from the animals at day 15. Samples of thymus, lymph node and spleen were obtained from individuals, and the cells were labeled with fluorescent antibody that bound to CD4, CD25, CD103 or Foxp3. The cells were then analyzed by flow cytometry to enumerate the numbers of the various cell types. The remainder of cells from lymph nodes and spleen of each treatment group were pooled, pre-enriched for CD4^+CD25^+ cells and then analyzed for CD4^+CD25^+ that arose from the host (endogenous CD45.2 cells) and from donor cells (CD45.1 cells that converted from the CD4^+CD25^− donor phenotype to the CD4^+CD25^+ phenotype after residing in vivo for 15 days). The cells were analyzed by cell sorter. To test for regulatory function, varying numbers of purified converted CD45.1 or endogenous CD45.2 CD4^+CD25^+ cells were co-cultured with 2000 CD4^+CD25^− responder cells, 1×10^5 irradiated spleen cells as antigen presenting cells, and […] of anti-CD3 antibody. Fresh CD4^+CD25^+ cells were used as controls. Proliferation was determined by measurement of ^3H-thymidine uptake 4 days after initiation of culture."}, "human whole blood": {"tested_on": "human whole blood", "experiment": "γ-interferon production in human whole blood exposed to LPS", "assay_type": "cell-based", "conditions": "24 hours with LPS; 16α-bromoepiandrosterone at 100 ng/mL", "method": "Anti-inflammation activity in human cells in vitro. […] The amount of γ-interferon was measured in the growth medium when the cells had been incubated in the presence of LPS for 24 hours."}, "NF-κB": {"tested_on": "NF-κB", "experiment": "inhibition of NF-κB activation in NF-κB-bla THP-1 cells after LPS stimulation", "assay_type": "cell-based, human", "how_it_was_run": "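THP-1 monocytes stably carrying an NF-κB response element–driven β-lactamase reporter, plated about 24 h before activation with LPS at 0.2 ng/mL. Reporter activity measured by FRET ratiometric detection; values are averages of usually 2-4 runs per compound.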"}, "Pseudomonas aeruginosa": {"tested_on": "Pseudomonas aeruginosa", "experiment": "clearance of Pseudomonas aeruginosa infection from lung tissue", "assay_type": "in vivo, CFTR mice", "conditions": "40 mg/kg; day 10; vs vehicle", "method": "Clearance of bacteria from lung tissue. The capacity of 16α-bromoepiandrosterone to clear a Pseudomonas aeruginosa infection from lung tissue was shown using a previously published protocol, A. van Heeckeren et al., J. Clin. Invest., 100(11):2810-2815 […]; A. van Heeckeren et al., Am. J. Respir. Crit. Care Med., 161:271-279 2000. The protocol was conducted in CFTR mice, which are used as an animal model for human cystic fibrosis, S. D. Freedman et al., Proc. Natl. Acad. Sci. USA, 96(24):13995-14000 1999; W. Zeng et al., Am. J. Physiol. Cell. Physiol. […] Establishment of chronic P. aeruginosa infection using agarose beads containing bacteria (50 μL containing about 6.1×10^4 CFU/animal) was published earlier, J. R. Starke et al., Pediatr. Res., 22:698-702 1987. Two groups of mice (n=9 for each group) were treated with 40 mg/kg of 16α-bromoepiandrosterone or vehicle (control) and the bacterial burden in the lungs of the animals was determined at 10 days after introduction of the agarose beads into the lung."}},
  "note": "pIC50: −log10 of the molar value.",
  "data": [
    {"molecule": "C[C@]12CC[C@H](O)C[C@@H]1CC[C@@H]1[C@@H]2CC[C@]2(C)C(=O)[C@H](Br)C[C@@H]12", "note": "[16α-bromoepiandrosterone]", "values": [
      {"measurement": "survival 72 hours after LPS", "setting": "[1]; 3 mg oral gavage 24 h before and 1 h after LPS", "value": 65, "unit": "%"},
      {"measurement": "survival 72 hours after LPS", "setting": "[1]; 3 mg subcutaneous injection 24 h before and 1 h after LPS", "value": 50, "unit": "%"},
      {"measurement": "survival 72 hours after LPS", "setting": "[1]; second assay, oral gavage 24 h before and 1 h after LPS", "value": 80, "unit": "%"},
      {"measurement": "donor CD45.1 CD4^+CD25^+CD103^+ cells of total donor CD4^+CD25^+ cells in spleen", "setting": "[2]", "value": 9.63, "unit": "%"},
      {"measurement": "proportion of endogenous CD45.2 CD4^+CD25^+CD103^+ Treg cells in spleen", "setting": "[2]", "value": 13.40, "unit": "%"},
      {"measurement": "donor CD45.1 CD4^+CD25^+ cell number in spleen", "setting": "[2]; day 15", "value": "0.62×10^5 cells"},
      {"measurement": "endogenous CD45.2 CD4^+CD25^+ cell number in spleen", "setting": "[2]; day 15", "value": "5.49×10^6 cells"},
      {"measurement": "endogenous CD45.2 CD4^+CD25^+ cells in the thymus", "setting": "[2]; day 15", "value": "1.59×10^5"},
      {"measurement": "production of γ-interferon", "setting": "human whole blood", "value": "Reduced production"},
      {"measurement": "maximum inhibition of NF-κB", "setting": "NF-κB", "value": 100, "unit": "%"},
      {"measurement": "pIC50", "setting": "NF-κB; LPS stimulation, 50% of the compound's maximum inhibition, averages, read-out: IC50", "value": 5.06},
      {"measurement": "bacterial burden in the lungs", "setting": "Pseudomonas aeruginosa", "value": "reduced"}
    ]}
  ]
}
